Key:
HDAC3 = molecular target: T1, HDAC3 (Homo sapiens, UniProt O15379); test: HDAC enzymes inhibition assay (Reaction Biology), HDAC3; type: biochemical; settings: 10-dose, 3-fold dilution from 10 μM, single experiment
T1 construct: Reaction Biology Corporation (ran the assay as a service)

[1] = tested on: acetylation of α-tubulin and histone H3; test: Western blot of α-tubulin and histone H3 acetylation in HCT116; type: cell-based, human; settings: HCT116, 0.25-1 μM, 6 hours
Method: (§1) The ability of α-tubulin and histone H3 acetylation was measured.
(§2) The effects of the HSP90/HDAC6 dual inhibitors as described in Synthesis Examples (such as Compounds 63, 64, and 66 to 76) on several factors were evaluated. Cells were lysed in RIPA buffer (Thermo Fisher Scientific, Wal-tham, MA, USA) and protease inhibitor (Roche, Basel, CH). Sample were further separated in 8% or 15% SDS-PAGE and transferred to nitrocellulose membrane and blocked with 5% skim milk (w/v in PBS). Nitrocellulose membranes were then incubated with primary antibodies against the following antigens: HSP90, Src, AKT, Rb, phosphorylated Rb (p-Rb), FAK, HSP70, α-tubulin acetylation, acetyl histone H3, phosphorylated STAT1 (p-STAT1), STAT1 (Cell signaling, Danvers, MA, USA), α-tubulin, Histone H3 (Genetex, Irvine, USA), IDO (Santa Cruz Biotechnology Dallas, TX, USA) and PD-L1 (Novus, Littleton, CO, USA) at 4° C. for overnight. The target proteins were visualized by using HRP-conjugated secondary antibodies (Jackson ImmunoResearch Laboratories, West Grove, PA, USA) and enhanced chemiluminescence kit (Thermo Fisher Scientific, Waltham, MA, U.S.A.).
(§3) The ability of Compound 75 on the acetylation of α-tubulin and histone H3 was evaluated. HCT116 cells were administered with Compound 75 for 6 hours and analyzed by western blot. […] Next, whether Compound 75 inhibited HSP90 was evaluated. […]

[2] = tested on: HSP90 client proteins (HSP70, Src, AKT, Rb, FAK); test: Western blot of HSP70 and HSP90 client proteins in HCT116; type: cell-based, human; settings: HCT116, 0.25-1 μM, 48 hours
Method: as §1, §2, §3

[3] = tested on: human colon normal epithelial cells (CCD841CON); test: MTT cytotoxicity to normal cells, CCD841CON; type: cell-based; settings: CCD-841CoN, 48 hours, read-out: IC50, proliferation of CCD841CON
Method: (§4) FIGS. 3A and 3B show the effects of Compound 75 on cytotoxicity to normal cell lines. Cells were treated with DMSO or different concentrations of Compound 75 for 48 hours and cell viability was assessed by MTT assay. […] Data are expressed as mean t S.D. N values greater than 3. * P<0.05; ** P<0.01; *** P<0.001, compared with the control group.
(§5) The effects on cell viability of the HSP90/HDAC6 dual inhibitors as described in Synthesis Examples (such as Compounds 63, 64, and 66 to 76) were evaluated. Cells were seeded in 96-well plates (5000 cells/well). The next day, the serially diluted drugs were added into the wells and incubated at 37° C. for 48 h. Cell viability was measured by the MTT assay and is expressed as percentages of surviving drug-treated cells relative to untreated control cells. The IC50 was calculated by non-linear regression analysis.
(§6) The cytotoxicity to normal cells of Compound 75 was evaluated.

[4] = tested on: human lung normal fibroblasts (IMR-90); test: MTT cytotoxicity to normal cells, IMR-90; type: cell-based; settings: 48 hours, read-out: IC50, proliferation of IMR-90
Method: as §4, §5, §6

[5] = tested on: CD8 cells and granzyme B in mouse tumor area; test: IHC of CD8 cell infiltration and granzyme B in CT26 tumor area; type: in vivo; settings: CT26 tumors, day 25, IHC, 10, 25, 50 mg/kg
Method: The tumors were removed from mice on day 25 and embedded in paraffin and sectioned for immunohistochemical staining. […] Bar, SD.
The effects of the HSP90/HDAC6 dual inhibitors as described in Synthesis Examples (such as Compounds 63, 64, and 66 to 76) on several factors were evaluated. IHC-Paraffin: Tumor tissues were excised from the mice, fixed in 4% formaldehyde solution in PBS, and embedded in paraffin. Sections of 4-5 μm were cut and placed in an oven at 60° C. for overnight. After deparaffinizing and rehydrating the section, the antigen retrieval was performed with citrate buffer (10 mM citrate acid, pH 6) or Tris buffer (10 mM Tris, 1 mM EDTA, pH9) by autoclave for 30 min at 121 C. The sections were blocked with 10% goat serum and then incubated with primary antibodies against the following antigens: IDO (Santa Cruz Biotechnology Dallas, TX, USA), CD8 (Novus, Littleton, CO, USA) and granzyme B (Abcam, Cambridge, UK) at 4 C for overnight. […] Images of the tumor tissues sections were captured by Mirax Scan (CARL ZEISS, Germany) or TissueFAXS (Vienna, Austria) and analyzed by HistoQuest software (Vienna, Austria).
It is known that TME blocks the infiltration of functional immune cells into the tumor area. The effects of Compound 75 on CD8 cell infiltration in the tumor area were evaluated. […] Therefore, the ability of CD8+ T cells to secrete granzyme B was evaluated.

[6] = tested on: colorectal cancer tumors (CT26); test: CT26 tumor model, Compound 75 and Anti-PD1 alone and combined; type: in vivo
[7] = tested on: central memory T cells (TCM) in the spleen; test: Central memory T cells in spleen by flow cytometry; type: in vivo, mouse
Method: Stage 1: CT26 was injected subcutaneously into the left dorsum of immunocompetent mice (BALB/c), and Compound 75 treatment was started after 3 days, administered intravenously at a dose of 50 mg/kg every two days (7 doses in total). After tumor removal, tumor cells were isolated for in vitro culture (untreated tumor control-tumor; Compound 75-treated tumor: Compound 75-tumor). Stage 2: On day 17, the isolated tumor cells were injected subcutaneously into the right side of the mouse back and the mice were sacrificed on day 37 (as shown in FIG. 14A). […] Data are mean t S.E.M. N values greater than 4.

[8] = Anti-PD1 combination study, Compound 75 50 mg/kg/2 days

T1 sequence (O15379 whole entry): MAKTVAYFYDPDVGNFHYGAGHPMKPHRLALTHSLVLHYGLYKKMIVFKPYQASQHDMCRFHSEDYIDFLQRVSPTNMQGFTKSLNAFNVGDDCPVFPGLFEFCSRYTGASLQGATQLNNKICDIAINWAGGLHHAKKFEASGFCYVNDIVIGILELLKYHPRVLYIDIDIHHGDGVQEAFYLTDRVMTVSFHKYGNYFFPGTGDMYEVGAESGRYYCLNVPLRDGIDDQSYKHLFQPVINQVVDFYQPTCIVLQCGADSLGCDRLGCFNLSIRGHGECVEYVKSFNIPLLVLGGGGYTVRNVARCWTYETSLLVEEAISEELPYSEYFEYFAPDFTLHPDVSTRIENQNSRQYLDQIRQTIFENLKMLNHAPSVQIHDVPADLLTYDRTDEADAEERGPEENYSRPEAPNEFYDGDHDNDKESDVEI
T1 sequence (Q9Y618 395-489 partner limits assumed): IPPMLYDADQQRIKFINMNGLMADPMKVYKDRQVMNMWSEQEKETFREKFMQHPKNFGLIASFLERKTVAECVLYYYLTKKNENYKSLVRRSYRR

## COc1ccc(N(Cc2ccc(C(=O)NO)cc2)C(=O)c2cc(C(C)C)c(O)cc2O)cc1 [Compound 75, 2,4-Dihydroxy-N-(4-hydroxycarbamoyl-benzyl)-5-isopropyl-N-(4-methoxy-phenyl)-benzamide]
HDAC3
  IC50: 1.37 µM
[1]
  acetylation of α-tubulin and histone H3: enhances the acetylation of α-tubulin and histone H3
[2]
  HSP70 expression: an increase in HSP70 expression
  protein levels of client proteins (Src, AKT, Rb and FAK): a downregulation of the protein levels of client proteins
[3]
  IC50: > 20 µM
[4]
  IC50: > 20 µM
[5]
  CD8 immune cell infiltration in the mouse tumor area: significantly increased
  granzyme B secretion: concentration-dependent increase
[6]; [8]
  body weight: no significant change in body weight
  toxicity to mice: not significantly toxic
[6]; Compound 75 50 mg/kg/2 days or Anti-PD1 200 μg alone
  treatment effect on CT26 tumor, agent alone: limited
[6]; Compound 75 50 mg/kg/2 days plus Anti-PD1 200 μg
  tumor growth, combined treatment with Anti-PD1: significantly inhibited tumor growth
[7]
  percentage of central memory T cells: significantly increased
